Data reported in ChEMBL document CHEMBL1201862, “PubChem BioAssay data set” (2004).
Where a name gives a salt, the structure may show the parent alone. Active and inactive are the calls of the source.

Key:
[1] = molecular target: Beta-galactosidase (Escherichia coli, UniProt Q8VNN2); test: Dose response counterscreen for EBI2 assay utilizing the enzyme, b-galactosidase.; format: functional
[2] = test system: H9c2; test: cells; format: functional, cell-based; conditions: Rattus norvegicus, H9c2, Myocardium;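 further: confirmatory concentration-response retest of ultra-high-throughput screening hits for modulation of myocardial damage; cell death induced by hydrogen peroxide oxidative stress; compound pretreatment for 60 min then peroxide exposure for 2 h; potency is for protecting the cells against peroxide damage rather than for killing them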
[3] = molecular target: Protein Wnt-3a (Mus musculus, UniProt P27467); test: Wnt3a-driven reporter signaling inhibition, dose response, selectivity assay for Gli-SUFU antagonist project, Wnt-LIGHT cells, luminescence (AID 651570); format: functional; conditions: read-out: IC50_Mean;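 further: Wnt-LIGHT reporter cells stimulated with conditioned medium from Wnt3a-producing cells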
Protein Wnt-3a, sequence (P27467 whole entry): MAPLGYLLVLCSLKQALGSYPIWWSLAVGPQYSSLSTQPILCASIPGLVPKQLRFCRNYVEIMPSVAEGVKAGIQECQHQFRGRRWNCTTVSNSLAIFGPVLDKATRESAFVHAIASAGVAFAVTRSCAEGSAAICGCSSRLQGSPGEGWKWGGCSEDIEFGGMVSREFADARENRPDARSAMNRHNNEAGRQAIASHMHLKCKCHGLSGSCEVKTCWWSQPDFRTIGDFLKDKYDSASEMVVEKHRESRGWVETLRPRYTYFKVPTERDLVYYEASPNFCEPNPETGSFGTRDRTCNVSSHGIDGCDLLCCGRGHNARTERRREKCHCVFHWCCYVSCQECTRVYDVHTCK

[4] = molecular target: T1, Trace amine-associated receptor 1 (Homo sapiens, UniProt Q96RJ0); test: Fluorescence-based cell-based high throughput dose response assay to identify agonists of the human trace amine associated receptor 1 (TAAR1).; format: functional
T1 sequence (Q96RJ0 whole entry): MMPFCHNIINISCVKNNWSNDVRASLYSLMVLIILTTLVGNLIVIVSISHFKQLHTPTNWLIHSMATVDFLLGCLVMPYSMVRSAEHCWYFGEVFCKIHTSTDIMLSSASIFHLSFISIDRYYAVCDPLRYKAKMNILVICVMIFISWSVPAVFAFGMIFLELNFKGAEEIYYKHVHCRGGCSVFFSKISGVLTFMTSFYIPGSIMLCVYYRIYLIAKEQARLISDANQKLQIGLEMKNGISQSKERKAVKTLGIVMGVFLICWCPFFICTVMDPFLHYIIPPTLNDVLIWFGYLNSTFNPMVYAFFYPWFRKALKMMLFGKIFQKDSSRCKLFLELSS

[5] = cells; format: functional, cell-based
[6] = molecular target: T1, Trace amine-associated receptor 1; test: Counterscreen for agonists of the human trace amine associated receptor 1 (hTAAR1): Fluorescence-based cell-based high throughput dose response assay to identify hTAAR1 agonist that also desensitize TAAR1 receptor response.; format: functional
[7] = cells; format: functional, cell-based; remark: listed apart in the source
[8] = Shn3 3'UTR reporter inhibitors, dose response, cell-based, Clone20 osteoblasts, firefly luciferase, cherry-picked (AID 624132); format: functional;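 further: firefly luciferase luminescence from reporter carrying the Shn3 3'UTR in osteoblasts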
[9] = molecular target: Paired box protein Pax-8 (Homo sapiens, UniProt Q06710); test: inhibitors of PAX8-driven TPO luciferase reporter, dose response, RMG-I cells, cherry-pick (AID 687027); format: functional, cell-based;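 further: luciferase reporter driven by Pax8 target thyroperoxidase promoter measured by SteadyGlo luminescence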
Paired box protein Pax-8, sequence (Q06710 whole entry): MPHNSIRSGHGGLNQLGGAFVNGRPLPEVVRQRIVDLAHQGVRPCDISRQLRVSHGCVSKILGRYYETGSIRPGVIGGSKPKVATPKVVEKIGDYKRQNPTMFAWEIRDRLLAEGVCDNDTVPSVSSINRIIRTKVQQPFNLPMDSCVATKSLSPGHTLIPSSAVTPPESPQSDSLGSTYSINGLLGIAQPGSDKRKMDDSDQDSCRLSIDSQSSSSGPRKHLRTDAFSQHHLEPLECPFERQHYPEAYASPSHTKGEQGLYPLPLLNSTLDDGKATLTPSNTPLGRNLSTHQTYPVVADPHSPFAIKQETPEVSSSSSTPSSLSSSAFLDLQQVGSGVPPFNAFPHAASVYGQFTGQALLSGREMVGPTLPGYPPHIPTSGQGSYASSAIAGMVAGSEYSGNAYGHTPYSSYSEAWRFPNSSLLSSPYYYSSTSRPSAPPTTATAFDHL

[10] = control 3'UTR Renilla luciferase suppression, dose response, counter-screen for Shn3 inhibitor project, cell-based, Clone20-Shn3RL, cherry-picked (AID 624133); format: functional
[11] = HepG2 cell cytotoxicity, dose response, cytotoxicity control for Shn3 inhibitor project, CellTiter-Glo, cherry-picked (AID 624134); format: functional, cell-based
[12] = THP-1 cell cytotoxicity, dose response, cytotoxicity control for non-replicating M. tuberculosis project (AID 489025); format: functional
[13] = molecular target: Albumin (Bos taurus, UniProt P02769); test: Counterscreen for inhibitors of T-cell receptor (TCR)-CD3 interaction: Fluorescence-based biochemical high throughput dose response assay to identify inhibitors of T-cell receptor (TCR)-CD3 interaction using a TAMRA-labeled BSA probe.; format: functional
Albumin, sequence (P02769 whole entry): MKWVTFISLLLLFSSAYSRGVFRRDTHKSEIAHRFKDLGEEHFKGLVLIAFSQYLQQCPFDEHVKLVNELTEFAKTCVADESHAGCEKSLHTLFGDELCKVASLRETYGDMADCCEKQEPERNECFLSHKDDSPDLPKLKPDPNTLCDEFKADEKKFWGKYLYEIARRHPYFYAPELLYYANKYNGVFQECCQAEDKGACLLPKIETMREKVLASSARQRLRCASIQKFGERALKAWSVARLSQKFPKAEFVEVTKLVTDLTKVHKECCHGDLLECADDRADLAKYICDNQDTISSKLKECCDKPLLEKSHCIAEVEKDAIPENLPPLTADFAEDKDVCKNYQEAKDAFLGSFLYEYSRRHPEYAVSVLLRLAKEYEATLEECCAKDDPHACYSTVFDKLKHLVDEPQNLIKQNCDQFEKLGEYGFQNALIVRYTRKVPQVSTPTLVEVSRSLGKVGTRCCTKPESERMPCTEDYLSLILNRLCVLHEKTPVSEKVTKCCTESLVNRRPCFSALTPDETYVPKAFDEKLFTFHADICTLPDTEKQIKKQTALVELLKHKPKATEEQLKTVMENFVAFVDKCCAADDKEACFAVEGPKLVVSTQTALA

[14] = test system: INS1; test: beta cell apoptosis inhibitors, cytokine rescue, dose response, luminescence, retest (AID 449756); format: functional, cell-based; conditions: Rattus norvegicus;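 further: cell death triggered by IL-1 beta plus TNF-alpha plus IFN-gamma mixture; protective hits raise ATP signal compared with cytokine alone wells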
[15] = Luminescence Cell-Based Dose Retest to Confirm Inhibitors of Cancer Stem Cells. [Related pubchem assays (depositor defined):AID2717, AID2721]; format: functional; conditions: Homo sapiens
[16] = molecular target: Nonstructural protein 1 (Influenza A virus, UniProt Q194T2); format: functional, Influenza A virus (A/California/07/2009(H1N1))
Nonstructural protein 1, sequence (Q194T2 whole entry): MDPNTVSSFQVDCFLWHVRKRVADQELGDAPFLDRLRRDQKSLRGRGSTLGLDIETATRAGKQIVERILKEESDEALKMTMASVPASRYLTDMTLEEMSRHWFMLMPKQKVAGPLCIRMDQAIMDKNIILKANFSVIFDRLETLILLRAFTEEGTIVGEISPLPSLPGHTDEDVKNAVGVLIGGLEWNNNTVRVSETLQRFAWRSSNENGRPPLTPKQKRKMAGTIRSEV

[17] = test system: Streptococcus sp. 'group A'; test: growth inhibition of control SK(-) GAS strain, dose response, counter-screen for streptokinase expression inhibitor project, luminescence, kanamycin, BacTiterGlo, confirmation (AID 1900); format: functional, organism-based
[18] = test system: Streptococcus; test: Group A Streptococcus viability loss, dose response, counter-screen for streptokinase expression inhibitor project, luminescence, BacTiterGlo (AID 1915); format: functional, organism-based;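 further: potency for reduction of bacterial viability or growth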
[19] = THP-1 cell cytotoxicity, dose response, cytotoxicity control for Vif-APOBEC3G degradation inhibitor project, THP-1 cells (AID 1117359); format: functional; conditions: Human immunodeficiency virus 1, THP-1
[20] = growth suppression of PTEN-null colon cells, dose response, cell-based, HCT116 PTEN knockout (AID 1047); format: functional;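 further: HCT116 colon tumor cells with PTEN knocked out; cells exposed to compound for 60 hours before readout; potency for loss of cell viability measured by luminescence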
[21] = test system: HEK293; test: inhibitors of LMP1-driven NF-kB reporter, dose response, cell-based, HEK293, luciferase, cherry-pick (AID 588343); format: functional; conditions: Homo sapiens
[22] = growth suppression of beta-catenin-knockout colon cells, dose response, cell-based, HCT116, human colon tumor (AID 1045); format: functional;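 further: HCT116 colon tumor cells with beta catenin knocked out; cells exposed to compound for 60 hours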

Beta-galactosidase, sequence (Q8VNN2 whole entry): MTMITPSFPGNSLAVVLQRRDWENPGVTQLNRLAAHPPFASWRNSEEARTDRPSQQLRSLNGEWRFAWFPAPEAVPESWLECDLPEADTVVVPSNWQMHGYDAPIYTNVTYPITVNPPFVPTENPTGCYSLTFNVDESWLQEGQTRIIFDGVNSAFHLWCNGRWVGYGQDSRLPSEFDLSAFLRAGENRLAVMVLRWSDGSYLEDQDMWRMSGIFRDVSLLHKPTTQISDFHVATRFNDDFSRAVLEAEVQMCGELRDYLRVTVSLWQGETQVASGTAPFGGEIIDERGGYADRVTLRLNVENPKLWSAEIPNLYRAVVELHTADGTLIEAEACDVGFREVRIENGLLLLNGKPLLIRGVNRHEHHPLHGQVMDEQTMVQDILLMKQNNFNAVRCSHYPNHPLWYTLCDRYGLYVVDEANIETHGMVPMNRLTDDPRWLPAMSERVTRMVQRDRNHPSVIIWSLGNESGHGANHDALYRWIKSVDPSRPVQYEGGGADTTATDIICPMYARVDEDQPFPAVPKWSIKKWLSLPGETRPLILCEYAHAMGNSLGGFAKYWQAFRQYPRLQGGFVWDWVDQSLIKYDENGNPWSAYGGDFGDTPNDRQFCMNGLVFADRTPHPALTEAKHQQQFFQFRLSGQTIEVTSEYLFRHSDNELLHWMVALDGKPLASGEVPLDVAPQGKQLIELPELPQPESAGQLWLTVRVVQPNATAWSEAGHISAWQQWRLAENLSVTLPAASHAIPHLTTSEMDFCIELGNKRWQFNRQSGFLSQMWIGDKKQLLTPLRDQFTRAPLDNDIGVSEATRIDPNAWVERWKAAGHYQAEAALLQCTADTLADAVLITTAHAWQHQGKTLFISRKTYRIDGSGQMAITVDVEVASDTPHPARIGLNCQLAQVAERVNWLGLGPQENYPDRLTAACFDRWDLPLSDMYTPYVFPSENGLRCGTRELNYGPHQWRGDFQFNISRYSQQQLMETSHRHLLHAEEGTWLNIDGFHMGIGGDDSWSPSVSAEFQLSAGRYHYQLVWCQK

For `O=C(Cn1nc(C(=O)O)c2ccccc2c1=O)c1c[nH]c2ccccc12`, the IC50 [1] was > 80 µM (inactive) and the IC50 [2] was > 79 µM (inactive).
For `Clc1ccc(-c2c[n+](-c3ccc(Cl)cc3)c3n2CCCCC3)cc1`, the IC50 [3] was 26.4 µM (inactive).
In the case of `S=C1SCN(CCc2ccccc2)CN1CCc1ccccc1`, the EC50 [4] is reported as 2.11 µM (active), the IC50 [5] is reported as > 29.9 µM (inactive) and the IC50 [6] is reported as 3.35 µM (active). The EC50 [7] was > 29.9 µM (inactive).
For `CCC(C)C1NC(=O)C(NC(=O)C(CC(C)C)N(C)C(=O)C2CCCN2C(=O)C(C)O)C(C)OC(=O)C(Cc2ccc(OC)cc2)N(C)C(=O)C2CCCN2C(=O)C(CC(C)C)NC(=O)[C@H](C)C(=O)[C@H](C(C)C)OC(=O)CC1O` (stereo partly specified), the AC50 [8] was < 0.26 µM (active), the AC50 [9] was < 0.26 µM (active) and the AC50 [10] was < 0.26 µM (active). The AC50 [11] was > 70 µM (inactive).
With `COc1ccc(C(=O)C=CNNC(=O)c2ccc(Cl)cc2)cc1` the CC50 [12] was 15.6 µM (active) and the IC50 [13] was > 94.1 µM (inactive).
With `c1ccc(CNc2c(-c3cccc(SC4CCCCC4)c3)nc3ccccn23)cc1` the AC50 [8] was 3.46 µM (active), the AC50 [14] was 5.06 µM (active) and the AC50 [15] was 5.29 µM (active). The AC50 [10] was 6.09 µM (active) and the AC50 [11] was > 70 µM (inactive).
For `O=C(N/N=C/c1cc([N+](=O)[O-])ccc1O)c1cccc(N2CCCC2=O)c1`, the IC50 [16] was 6.59 µM (active), the EC50 [17] was 0.935 µM (active) and the IC50 [13] was > 94.1 µM (inactive). For the same compound, the EC50 [18] was 1.9 µM (active).
For `OC[C@@H]1CN(Cc2cccc(C(F)(F)F)c2)C[C@H](n2cnc3c(NC4CC4)ncnc32)O1`, the IC50 [1] was > 80 µM (inactive).
For `CN(C)c1ccc(/C=N/CC2COc3ccccc3O2)cc1` (stereo unspecified), the EC50 [4] was 4.25 µM (active), the IC50 [5] was > 29.9 µM (inactive) and the IC50 [6] was 14.3 µM (inactive). The EC50 [7] was > 29.9 µM (inactive).
For `Nc1c(S(=O)(=O)c2ccccc2)c2nc3ccccc3nc2n1/N=C/c1ccco1`, the CC50 [19] was > 40 µM (active) and the IC50 [1] was > 80 µM (inactive).
For `O=C(CCN1CCC(c2ccccc2)C1)c1ccc2c(c1)OCCO2` (stereo unspecified) [PROROXAN HYDROCHLORIDE], the EC50 [20] was 36.3 µM (active), the AC50 [21] was 76.8 µM (active) and the EC50 [4] was 0.21 µM (active). For the same compound, the IC50 [5] was > 29.9 µM (inactive), the IC50 [6] was 1.46 µM (active) and the EC50 [7] was > 29.9 µM (inactive). For the same compound, the EC50 [22] was 34.3 µM (active).
